This is an account of results in patent US20090170923A1, “HCV INHIBITORS” (priority 2004, published 2009).

SMILES strings stand for the structures. Where a name gives a salt, the structure may show the parent alone.

A word on the IC50: it is the concentration needed to halve the response being measured. Lower therefore signals greater potency.

The assay relates to HCV genotype 1b strain Con1 replicon (ET replicon line, Huh7 cells). The experiment in a line: HCV ET replicon luciferase assay. The assay is classed as cell-based. The conditions noted are these: Hepatitis C virus, Huh-7; Huh7 cells stably transfected with HCV genotype 1b Con1 replicon; firefly luciferase readout; 72 hours incubation. As to the method:
Compounds of the current invention are believed useful in the treatment and/or prophylaxis of conditions and diseases associated with HcV infection. Activity mediated through HCV was determined using an ET replicon line.
The Materials used include a Medium comprised of DMEM (IX liquid, high glucose); Invitrogen cat #11965-092; 100× Penicillin/Streptomycin solution (10,000 Units/mL); Invitrogen cat #15140-122; 100× Non-essential amino acid solution (10 mM); Invitrogen cat #11140-050; Fetal bovine serum; JRH Biosciences cat #12107-500M; Geneticin (50 mg/mL); Invitrogen cat #10131-035
The Luciferase assay reagents include Steady-Glo Luciferase assay system, cat # E2550 (Promega)
The ET replicon line (see Lohmann et al. (1999), Replication of subgenomic hepatitis C virus RNAs in a hepatoma cell line. Science 285: 110-113; Krieger et al. (2001), Enhancement of hepatitis C virus RNA replication by cell culture-adaptive mutations. J. Virol. 75: 4614-4624; and Vrolijk et al. (2003), A replicon-based bioassay for the measurement of interferons in patients with chronic hepatitis C. J. Virol. Meth. 110: 201-209, each herein incorporated by reference with regard to the ET replicon line), includes Huh7 cells stably transfected with HCV genotype 1b strain Con1 replicon. This replicon expresses the firefly luciferase, has the coding region for ubiquitin inserted upstream of the neomycin gene, and carries three cell culture-adaptive mutations that enhance RNA replication cooperatively (E1202G, T1280I, and S2197P). The ET cell line was obtained under licence from: ReBLikon GmbH, Nach dem alten Schloss 22, 55239 Gau-Odernheim, Germany. […]
Cells are grown to approximately 80% confluency and trypsinised as described above. Cells are counted in a Levy Hemocytometer and diluted to 20,000 cells/ml in DMEM containing 10% FBS, 1× penicillin/streptomycin, 1×NEAAs. […]
245 μL cell suspension is added to the first 11 columns of the daughter plates prepared as above using a Multidrop dispenser (Titertek). […] The twelfth column of each plate is used to generate background readings for the assay. […]
`C[C@H](N[C@@H]1CCCc2c1[nH]c1ccc(Br)cc21)c1ccccc1` [Example 36, (1R)-6-Bromo-N-[(1S)-1-phenylethyl]-2,3,4,9-tetrahydro-1H-carbazol-1-amine Hydrochloride Salt] registered a concentration for half-maximal inhibition (IC50) of 8 nM.

On to `C[C@@H](N[C@@H]1CCCc2c1[nH]c1ccc(Br)cc21)c1ccccc1` [Example 31, (1R)-6-bromo-N-[(1R)-1-phenylethyl]-2,3,4,9-tetrahydro-1H-carbazol-1-amine Hydrochloride Salt], for which half-maximal inhibition (IC50) was put at 13 nM.

On to `Brc1ccc2[nH]c3c(c2c1)CCC[C@H]3NC1Cc2ccccc2C1` [Example 27, (1R)-6-Bromo-N-(2,3-dihydro-1H-inden-2-yl)-2,3,4,9-tetrahydro-1H-carbazol-1-amine hydrochloride salt], for which the midpoint of inhibition, the IC50, lay at 54 nM.
